Measurements reported in patent US20070093520A1, “Method of treatment of diarrhea-predominant irritable bowel syndrome in a subject” (priority 2005, published 2007).

Tested on: diarrhea-predominant IBS subjects
Assay: 3007 Study: open-label 52-week safety study, adverse events and withdrawals
[1] = Placebo/Cilansetron 2 mg, N=279
[2] = Placebo/Cilansetron 2 mg, N=279, % of appropriate gender
[3] = Placebo/Cilansetron 2 mg, gender-specific

Compound: Cc1nccn1C[C@H]1CCc2c(c3cccc4c3n2CCC4)C1=O [cilansetron, (R)-(−)-4,5,6,8,9,10-hexahydro-10-[(2-methyl-1H-imidazol-1-yl)methyl]-11H-pyrido-[3,2,1-jk]-carbazol-11-one]
- TEAE leading to permanent discontinuation: Urticaria NOS [1]: 1 (<1%) n (%)
- TEAE leading to permanent discontinuation: Vertigo [1]: 0 n (%)
- TEAE leading to permanent discontinuation: Visual Acuity Reduced [1]: 1 (<1%) n (%)
- TEAE leading to permanent discontinuation: Vomiting NOS [1]: 0 n (%)
- TEAE leading to permanent discontinuation: White Blood Cells Urine Positive [1]: 0 n (%)
- Total Number of Subjects with at Least One TEAE Leading to Discontinuation of Study Medication [1]: 50 (18%) n (%)
- TEAE leading to permanent discontinuation: Benign Ovarian Tumour* [2]: 1 (<1%) n (%)
- TEAE leading to permanent discontinuation: Breast Cancer NOS* [2]: 2 (1%) n (%)
- TEAE leading to permanent discontinuation: Ovarian Cancer NOS* [2]: 0 n (%)
- TEAE leading to permanent discontinuation: Ovarian Cystadenofibroma* [2]: 1 (<1%) n (%)
- TEAE leading to permanent discontinuation: Pregnancy NOS* [2]: 0 n (%)
- TEAE: Female Reproductive Tract Infections* [3]: 0 n (%)
- TEAE: Prostate Examination Abnormal* [3]: 0 n (%)
- TEAE: Smear Cervix Abnormal* [3]: 0 n (%)
- TEAE: Vaginal Candidiasis* [3]: 1 (<1%) n (%)
- TEAE: Vaginitis Bacterial NOS* [3]: 0 n (%)
- TEAE: Vaginitis* [3]: 0 n (%)
- TEAE: Vaginosis Fungal NOS* [3]: 1 (<1%) n (%)
- potential complications of constipation (Studies 3006 and 3007): two
- constipation episodes reported as SAEs (Study 3007): None
- constipation that led to dose reduction (Study 3007): seven
- deaths (Study 3007): No deaths
- longest duration of a constipation episode (Study 3007): 189 days
- mean longest duration of a constipation episode (Study 3007): 10.4 days
- median longest duration of a constipation episode (Study 3007): four
- subjects mildly bothered by the constipation (Study 3007): 8%
- subjects moderately bothered by the constipation (Study 3007): 7%
- subjects reporting only one constipation episode (Study 3007): 15%
- subjects with a constipation episode that lasted longer than 30 days (Study 3007): Thirteen
- subjects with an SAE reported as probably related to study medication (colitis ischemic) (Study 3007): One
- subjects with treatment-emergent SAEs reported as unlikely related to study medication (Study 3007): five
- treatment-emergent SAE: angina pectoris (Study 3007): two
- treatment-emergent SAE: breast cancer NOS (Study 3007): two
- treatment-emergent SAE: chest pain (Study 3007): two
- treatment-emergent SAEs of cardiac disorders (Study 3007): four
- treatment-emergent rectal hemorrhage (Study 3007): Eight
- overall safety, tolerability and QOL finding (Study 3007, 2 mg TID over 52 weeks): generally safe, well-tolerated, and improved QOL
- TEAE incidence: abdominal pain NOS (Study 3007, 18 to 40 years): 8%
- TEAE incidence: constipation (Study 3007, 18 to 40 years): 19%
- TEAE incidence: flatulence, bloating and distension (Study 3007, 18 to 40 years): 8%
- TEAE incidence: headache NOS (Study 3007, 18 to 40 years): 7%
- TEAE incidence: lower respiratory tract and lung infections (Study 3007, 18 to 40 years): 4%
- TEAE incidence: nausea and vomiting symptoms (Study 3007, 18 to 40 years): 9%
- TEAE incidence: sinusitis NOS (Study 3007, 18 to 40 years): 9%
- TEAE incidence: abdominal pain NOS (Study 3007, 41 to 64 years): 5%
- TEAE incidence: constipation (Study 3007, 41 to 64 years): 23%
- TEAE incidence: flatulence, bloating and distension (Study 3007, 41 to 64 years): 5%
- TEAE incidence: headache NOS (Study 3007, 41 to 64 years): 6%
- TEAE incidence: lower respiratory tract and lung infections (Study 3007, 41 to 64 years): 6%
- TEAE incidence: nausea and vomiting symptoms (Study 3007, 41 to 64 years): 6%
- TEAE incidence: sinusitis NOS (Study 3007, 41 to 64 years): 7%
- TEAE incidence: abdominal pain NOS (Study 3007, 65 years or older): 12%
- TEAE incidence: constipation (Study 3007, 65 years or older): 37%
- TEAE incidence: flatulence, bloating and distension (Study 3007, 65 years or older): 12%
- TEAE incidence: headache NOS (Study 3007, 65 years or older): 1%
- TEAE incidence: lower respiratory tract and lung infections (Study 3007, 65 years or older): 1%
- TEAE incidence: nausea and vomiting symptoms (Study 3007, 65 years or older): 1%
- TEAE incidence: sinusitis NOS (Study 3007, 65 years or older): 3%
- SAE: Abdominal Pain Upper (Study 3007, C/C): 1 (<1%) n (%)
- SAE: Adenomyosis* (Study 3007, C/C): 1 (<1%) n (%)
- SAE: Angina Pectoris (Study 3007, C/C): 2 (<1%) n (%)
- SAE: Appendicitis (Study 3007, C/C): 1 (<1%) n (%)
- SAE: Asthma NOS (Study 3007, C/C): 0 n (%)
- SAE: Benign Ovarian Tumour* (Study 3007, C/C): 0 n (%)
- SAE: Bladder Prolapse (Study 3007, C/C): 0 n (%)
- SAE: Bone Neoplasm Malignant (Study 3007, C/C): 1 (<1%) n (%)
- SAE: Breast Cancer NOS* (Study 3007, C/C): 0 n (%)
- SAE: Bronchopneumonia NOS (Study 3007, C/C): 0 n (%)
- SAE: Calculus Ureteric (Study 3007, C/C): 1 (<1%) n (%)
- SAE: Cardiac Disorders (Study 3007, C/C): 3 (1%) n (%)
- SAE: Chest Pain (Study 3007, C/C): 1 (<1%) n (%)
- SAE: Cholelithiasis (Study 3007, C/C): 1 (<1%) n (%)
- SAE: Colitis Ischaemic (Study 3007, C/C): 0 n (%)
- SAE: Depression (Study 3007, C/C): 0 n (%)
- SAE: Endometriosis* (Study 3007, C/C): 1 (<1%) n (%)
- SAE: Fibroma NOS (Study 3007, C/C): 0 n (%)
- SAE: Food Allergy (Study 3007, C/C): 0 n (%)
- SAE: Gastritis NOS (Study 3007, C/C): 1 (<1%) n (%)
- SAE: Gastroenteritis NOS (Study 3007, C/C): 1 (<1%) n (%)
- SAE: Gastrointestinal Disorders (Study 3007, C/C): 3 (1%) n (%)
- SAE: General Disorders and Administration Site Conditions (Study 3007, C/C): 1 (<1%) n (%)
- SAE: Hallucination NOS (Study 3007, C/C): 0 n (%)
- SAE: Hallucination, Auditory (Study 3007, C/C): 0 n (%)
- SAE: Heat Exhaustion (Study 3007, C/C): 1 (<1%) n (%)
